# Reference: patent US20110053916A1 (Vertex Pharmaceuticals Incorporated, priority 2009, published 2011)
# Assays:
# [1] = tested on: Mycobacterium tuberculosis H37Ra; test: Mycobacterium tuberculosis growth inhibition assay (microtiter dilution, resazurin reduction); assay type: cell-based; settings: 7H9 broth, 9 days + 24 h resazurin, lowest concentration inhibiting resazurin reduction by >70%, several symbols in a cell = repeat determinations
# Experimental: Compounds were screened for their ability to inhibit the growth of Mycobacterium tuberculosis H37Ra using a standard microtiter dilution method with reduction of the dye resazurin as an indicator of growth. The growth assay was carried out in standard Mycobacterium liquid growth medium, 7H9Broth (BD Biosciences, Franklin Lakes, N.J.) supplemented with 10% ADC enrichment (BD Biosciences, Franklin Lakes, N.J.). The medium was inoculate with ˜1×10^6 cells/milliliter of Mycobacterium tuberculosis H37Ra grown on a the surface of a growth medium solid medium (7H11 agar [BD Biosciences, Franklin Lakes, N.J.] supplemented with 10% OADC enrichment [BD Biosciences, Franklin Lakes, N.J.]).
# Two-fold serial dilutions (either 7 or 11-step series) of test compounds in DMSO were dispensed into 96-well assay plates (sterile, black sided, clear bottom wells) in a volume of 1 microliter. One microliter of DMSO was dispensed into a control well at the end of each series. One-hundred microliters of the bacterial cell suspension in growth medium was dispensed into each test well containing a DSMO solution of compound. The assay plates were covered with a fitted lid and incubated at 37° C. in a humidified chamber for 9 days. On the ninth day 30 microliters of a 0.01% solution of resazurin (Sigma Chemical Co., St. Louis, Mo.) in distilled water was added to each well and the baseline fluorescence of resazurin was determined by measuring well fluorescence at an excitation wavelength of 492 nm and an emission wavelength of 595 nm on a Spectrafluor Plus (Tecan, Durham, N.C.) instrument. The assay plates were returned to the incubation chamber for 24 hours. After 24 hours, the fluorescence of the wells (resulting from the reduction of resazurin dye) was measured at an excitation wavelength of 492 nm and an emission wavelength of 595 nm on the Spectrafluor Plus instrument. The minimum inhibitory concentration (MIC) was called as the lowest concentration of compound that inhibited the reduction of resazurin by >70%, as compared to the DMSO (untreated) control wells. MIC values are represented as the following values: • A* <1.6 μM • A 1.6 μM<12.5 μM • B** 12.5 μM-25.0 μM • B* 25.0 μM-50.0 μM • B 50.0 μM-100.0 μM • C >100.0 μM
# PknB = biological target: T1, PknB (Mycobacterium tuberculosis, UniProt P9WI81); test: biochemical; set-up: species or system M. tuberculosis; settings: 3 nM PknB, 6 uM GarA, 3 μM ATP, 30 min, competitive tight-binding fit, several symbols in a cell = repeat determinations; for Ki: read-out: Ki Values
# T1 construct: made in house
# T1 sequence (P9WI81 whole entry): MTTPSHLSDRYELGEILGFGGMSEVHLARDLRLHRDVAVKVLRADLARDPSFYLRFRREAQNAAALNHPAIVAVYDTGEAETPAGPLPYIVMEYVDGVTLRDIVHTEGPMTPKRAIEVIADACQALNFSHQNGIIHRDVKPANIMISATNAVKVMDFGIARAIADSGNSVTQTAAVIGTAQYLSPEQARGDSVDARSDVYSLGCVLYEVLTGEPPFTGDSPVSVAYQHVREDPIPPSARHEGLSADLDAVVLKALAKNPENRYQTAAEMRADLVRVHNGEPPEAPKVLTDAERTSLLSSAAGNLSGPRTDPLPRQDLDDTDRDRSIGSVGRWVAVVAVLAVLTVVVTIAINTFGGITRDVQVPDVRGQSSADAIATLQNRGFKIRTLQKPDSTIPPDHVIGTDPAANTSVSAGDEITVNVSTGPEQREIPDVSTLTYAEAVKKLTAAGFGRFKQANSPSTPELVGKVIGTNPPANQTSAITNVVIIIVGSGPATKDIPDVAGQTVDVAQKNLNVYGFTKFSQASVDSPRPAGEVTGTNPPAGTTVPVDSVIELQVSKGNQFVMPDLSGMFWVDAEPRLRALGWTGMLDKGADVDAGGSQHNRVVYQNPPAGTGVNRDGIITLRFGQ
Structure (SMILES),MIC values [1],Ki (PknB),Ki Values (PknB)
"CC(C)(C)OC(=O)NCCNS(=O)(=O)c1ccc(-c2ncc(Cl)c(Nc3cc(C4CC4)[nH]n3)n2)s1 [Compound 78, tert-Butyl 2-(5-(5-chloro-4-(5-cyclopropyl-1H-pyrazol-3-ylamino)pyrimidin-2-yl)thiophene-2-sulfonamido)ethylcarbamate]","A, B++, C, C",100 to 500 nM,
"CN(C)CCNS(=O)(=O)c1ccc(-c2ncc(Cl)c(Nc3cc(C4CC4)[nH]n3)n2)s1 [Compound 79, 5-[5-chloro-4-[(5-cyclopropyl-1H-pyrazol-3-yl)amino]-pyrimidin-2-yl]-N-(2-dimethylaminoethyl)thiophene-2-sulfonamide]","B+, B",10 to 50 nM,
"Nc1ccc(Nc2nccc(Nc3cc(C4CC4)n[nH]3)n2)cc1 [Compound 80, N-(4-aminophenyl)-N′-(5-cyclopropyl-2H-pyrazol-3-yl)-pyrimidine-2,4-diamine]","B, C",,"A, B**"
"CC(=O)OC/C=C/c1cnc(-c2ccccc2)nc1Nc1cc(C2CC2)[nH]n1 [Compound 81, (E)-3-(4-(5-cyclopropyl-1H-pyrazol-3-ylamino)-2-phenylpyrimidin-5-yl)allyl acetate]","B++, B+",100 to 500 nM,
"O=S(=O)(NCCO)c1ccc(Nc2nccc(Nc3cc(C4CC4)n[nH]3)n2)cc1 [Compound 83, 4-[[4-[(5-cyclopropyl-2H-pyrazol-3-yl)amino]pyrimidin-2-yl]amino]-N-(2-hydroxyethyl)benzenesulfonamide]",B+,,"A**, A*"
"O=S(=O)(NCCO)c1ccc(-c2ncc(Cl)c(Nc3cc(C4CC4)[nH]n3)n2)s1 [Compound 86, 5-[5-chloro-4-[(5-cyclopropyl-1H-pyrazol-3-yl)amino]-pyrimidin-2-yl]-N-(2-hydroxyethyl)thiophene-2-sulfonamide]",B++,1 to 10 nM,
"COCCNS(=O)(=O)c1ccc(-c2ncc(Cl)c(Nc3cc(C4CC4)[nH]n3)n2)s1 [Compound 88, 5-(5-chloro-4-(5-cyclopropyl-1H-pyrazol-3-ylamino)pyrimidin-2-yl)-N-(2-methoxyethyl)thiophene-2-sulfonamide]","B+, C",10 to 50 nM,
"O=S(=O)(NC1CC1)c1ccc(Nc2nccc(Nc3cc(C4CC4)n[nH]3)n2)cc1 [Compound 90, N-cyclopropyl-4-[[4-[(5-cyclopropyl-2H-pyrazol-3-yl)amino]pyrimidin-2-yl]amino]-benzenesulfonamide]",B+,10 to 50 nM,
"C#Cc1cnc(Nc2ccc3[nH]ncc3c2)nc1Nc1cc(C2CC2)[nH]n1 [Compound 91, N^4-(5-cyclopropyl-1H-pyrazol-3-yl)-5-ethynyl-N^2-(1H-indazol-5-yl)pyrimidine-2,4-diamine]",B+,10 to 50 nM,
"C#Cc1cnc(-c2ccc(C)c(C(N)=O)c2)nc1Nc1cc(C2CC2)[nH]n1 [Compound 93, 5-(4-(5-Cyclopropyl-1H-pyrazol-3-ylamino)-5-ethynylpyrimidin-2-yl)-2-methyl benzamide]","B, C",10 to 50 nM,
"CS(=O)(=O)c1ccc(Nc2nccc(Nc3cc(C4CC4)[nH]n3)n2)cc1 [Compound 94, N′-(5-cyclopropyl-2H-pyrazol-3-yl)-N-(4-methylsulfonylphenyl)-pyrimidine-2,4-diamine]","B++, B+",1 to 10 nM,
"O=S(=O)(c1ccc(-c2ncc(Cl)c(Nc3cc(C4CC4)[nH]n3)n2)s1)N1CCCC1 [Compound 98, 5-chloro-N-(5-cyclopropyl-1H-pyrazol-3-yl)-2-(5-pyrrolidin-1-ylsulfonyl-2-thienyl)-pyrimidin-4-amine]","B, C",1 to 10 nM,
"NS(=O)(=O)c1cccc(-c2ncc(O)c(Nc3cc(C4CC4)n[nH]3)n2)c1 [Compound 99, 3-(4-(3-cyclopropyl-1H-pyrazol-5-ylamino)-5-hydroxypyrimidin-2-yl)benzenesulfonamide]","B+, B",10 to 50 nM,
"CN(C)S(=O)(=O)c1ccc(Nc2nccc(Nc3cc(C4CC4)n[nH]3)n2)cc1 [Compound 103, 4-(4-(3-cyclopropyl-1H-pyrazol-5-ylamino)pyrimidin-2-ylamino)N,N-dimethylbenzenesulfonamide]","B++, B+",,"A**, A*"
"Oc1cccc(-c2ncc(Cl)c(Nc3cc(C4CC4)[nH]n3)n2)c1 [Compound 104, 3-[5-chloro-4-[(5-cyclopropyl-1H-pyrazol-3-yl)amino]-pyrimidin-2-yl]phenol]","B++, C",,"A*, A"
"CS(=O)(=O)Nc1ccc(-c2ncc(Cl)c(Nc3cc(C4CC4)[nH]n3)n2)cc1 [Compound 105, N-[4-[5-chloro-4-[(5-cyclopropyl-1H-pyrazol-3-yl)amino]pyrimidin-2-yl]phenyl]methanesulfonamide]",B+,10 to 50 nM,
"O=S(=O)(c1ccc(-c2ncc(Cl)c(Nc3cc(C4CC4)[nH]n3)n2)s1)N1CCOCC1 [Compound 106, 5-chloro-N-(5-cyclopropyl-1H-pyrazol-3-yl)-2-(5-morpholinosulfonyl-2-thienyl)-pyrimidin-4-amine]","B++, C",,"A*, A"
"CS(=O)(=O)Nc1cccc(-c2ncc(Cl)c(Nc3cc(C4CC4)[nH]n3)n2)c1 [Compound 107, N-[3-[5-chloro-4-[(5-cyclopropyl-1H-pyrazol-3-yl)amino]pyrimidin-2-yl]phenyl]methanesulfonamide]","B++, B+",50 to 100 nM,
"C#Cc1cnc(-c2ccc(S(=O)(=O)NCCO)s2)nc1Nc1cc(C2CC2)[nH]n1 [Compound 108, 5-(4-(3-cyclopropyl-1H-pyrazol-5-ylamino)-5-ethynylpyrimidin-2-yl)-N-(2-hydroxyethyl)thiophene-2-sulfonamide]",B+,1 to 10 nM,
"C#Cc1cnc(-c2ccc(C(C)=O)s2)nc1Nc1cc(C2CC2)[nH]n1 [Compound 111, 1-(5-(4-(5-Cyclopropyl-1H-pyrazol-3-ylamino)-5-ethynylpyrimidin-2-yl)thiophen-2-yl)ethanone]","B++, B",,"A**, A*"
"COCCNS(=O)(=O)c1ccc(Nc2nccc(Nc3cc(C4CC4)n[nH]3)n2)cc1 [Compound 112, 4-[[4-[(5-cyclopropyl-2H-pyrazol-3-yl)amino]pyrimidin-2-yl]amino]-N-(2-methoxyethyl)benzenesulfonamide]",B+,10 to 50 nM,
"C#Cc1cnc(-c2ccc(S(=O)(=O)NC)s2)nc1Nc1cc(C2CC2)n[nH]1 [Compound 113, 5-(4-(3-cyclopropyl-1H-pyrazol-5-ylamino)-5-ethynylpyrimidin-2-yl)-N-methylthiophene-2-sulfonamide]",B+,1 to 10 nM,
"C#Cc1cnc(-c2ccc(S(N)(=O)=O)s2)nc1Nc1cc(C2CC2)n[nH]1 [Compound 114, 5-(4-(3-Cyclopropyl-1H-pyrazol-5-ylamino)-5-ethynylpyrimidin-2-yl)thiophene-2-sulfonamide]","A+, A",1 to 10 nM,
"C#Cc1cnc(-c2ccc(S(=O)(=O)NC(C)(C)C)s2)nc1Nc1cc(C2CC2)n[nH]1 [Compound 115, N-tert-butyl-5-(4-(5-cyclopropyl-1H-pyrazol-3-ylamino)-5-ethynylpyrimidin-2-yl)thiophene-2-sulfonamide]","B++, B+",10 to 50 nM,
"CNS(=O)(=O)c1ccc(-c2ncc(Cl)c(Nc3cc(C4CC4)n[nH]3)n2)cc1 [Compound 117, 4-[5-chloro-4-[(5-cyclopropyl-2H-pyrazol-3-yl)amino]-pyrimidin-2-yl]-N-methyl-benzenesulfonamide]","A, C, C",,"A*, A"
"OCc1cnc(-c2ccccc2)nc1Nc1cc(C2CC2)n[nH]1 [Compound 123, (4-(5-cyclopropyl-1H-pyrazol-3-ylamino)-2-phenylpyrimidin-5-yl)methanol]","B, C",100 to 500 nM,
"NS(=O)(=O)c1cccc(-c2ncc(CO)c(Nc3cc(C4CC4)n[nH]3)n2)c1 [Compound 124, 3-(4-(5-cyclopropyl-1H-pyrazol-3-ylamino)-5-(hydroxymethyl)pyrimidin-2-yl)benzenesulfonamide]","A, B++",50 to 100 nM,
